“Also recorded” adds a separate entry of the source.
Columns and labels:
Format in all cases: cell-based, human
[1] = system: interferon-stimulated genes IFIH1, ISG20, CXCL9, and CD74; assay: IFNG induction of interferon-stimulated genes, RT-qPCR in MB135 cells with doxycycline-inducible transgenes; conditions: for suppression of IFNG induction of ISGs (IFIH1, ISG20, CXCL9, CD74): MB135 cells, doxycycline-induced transgene, continuous protocol, IFNG 16 h
Protocol: (§1) All myoblast experiments were conducted in immortalized MB135 or MB200 myoblast cell lines (isolated from a control or FSHD2 subject, respectively cultured in Ham's F-10 Nutrient Mix (Gibco) supplemented with 15% fetal bovine serum (Hyclone), 100 U/100 μg/ml penicillin/streptomycin (Gibco), 1 μM dexamethasone (Sigma), and 10 ng/ml recombinant human basic fibroblast growth factor (PeproTech). To differentiate the myoblasts to myotubes, media was changed to DMEM supplemented with 10 μg/ml insulin (Sigma) and 10 μg/ml transferrin (Sigma). Cell lines containing doxycycline-inducible transgenes were additionally cultured with 2 μg/mL puromycin (Sigma). Transgenes were induced with 1 μg/mL of doxycycline (Sigma) for 4 hours prior to other treatments for a total of 20 hrs. The Kitra-SRS cells (RRID:CVCL_YI69) were provided by Dr. H. Otani and Osaka University (Nakai et al., 2019) and were cultured in DMEM supplemented with 10% fetal bovine serum (Hyclone) and 100 U/100 μg/ml penicillin/streptomycin (Gibco). Biological replicates consisted of independent but parallel experiments, such as simultaneously stimulating three cell culture plates with IFNγ. Technical replicates consisted of repeat measurements of the same biological sample, such as loading the same biological sample in triplicate for analysis by RT-qPCR.
(§2) Myoblasts were transfected with either (final concentrations) 10 μM 2′,3′-cGAMP (Sigma Aldrich), 2 μg/mL poly(I:C) (Invitrogen), or 1 μg/mL 3′ppp-dsRNA RIG-I ligand (Dan Stetson Lab, UW) using Lipofectamine 2000 according to manufacturer's protocol, or were stimulated with 1000U IFNβ (PeproTech) or 200 ng/ml IFNγ (R+D Systems) by addition directly to cell culture medium. After 16 hours of immune stimulation, RNA was collected from cells using the NucleoSpin RNA Kit (Macherey-Nagel) according to manufacturer's instructions. RNA samples were quantified by nanodrop and 1 μg of RNA per sample was treated with DNase I Amplification Grade (Thermo Fisher), and then synthesized into cDNA using the Superscript IV First-Strand Synthesis System, including oligo dT primers (Invitrogen). qPCR was run in 384-well plates on an Applied Biosystems QuantStudio 6 Flex Real-Time PCR System (ABI) and analyzed in Microsoft Excel.

ISG induction by IFNG = assay: RNA-seq of IFNG-induced genes in MB135 cells; conditions: doxycycline + IFNG; for IFNG-induced genes whose induction was suppressed more than 2-fold (percent) / IFNG-induced genes whose induction was suppressed more than 4-fold (percent): genes induced by IFNG (log 2 fold-change >3)
Protocol: RNA was extracted as described above from untreated, doxycycline-treated, IFNγ-treated, or doxycycline- and IFNγ-treated samples. RNA was submitted to the Fred Hutchinson Cancer Research Center Genomics Core for library preparation using the TruSeq3 Stranded mRNA kit (Illumina) followed by size and quality analysis by Tapestation (Agilent). Libraries were sequenced on a NextSeq P2-100 (Illumina).
Sequencing analysis was performed using R version 4.0.3 (R Core Team, 2020). Sequencing reads were trimmed using Trimmomatic (version 0.39) (Bolger et al., 2014, Trimmomatic: a flexible trimmer for Illumina sequence data. Bioinformatics 30, 2114-2120), and aligned to the Homo sapiens GRCh38 reference genome with the Rsubread aligner (Liao et al., 2019, The R package Rsubread is easier, faster, cheaper and better for alignment and quantification of RNA sequencing reads. Nucleic Acids Res 47, e47). Gene counts were analyzed using featureCounts (v2.0.1) (Liao et al., 2019, supra) and the Gencode v35 annotation file. Normalization and differential expression analysis were done with DESeq2 (v1.26.0) (Love et al., 2014, Moderated estimation of fold change and dispersion for RNA-seq data with DESeq2. Genome Biol 15, 550).

ZSCAN4 = assay: Activation of DUX4 target gene ZSCAN4, RT-qPCR; conditions: MB135 cells ± doxycycline
Protocol: as §1, §2

MEL375 cells = assay: IFNG-induced MHC class I in MEL375 melanoma cells (immunoblot, FACS)
Protocol: Expression of DUX4-CTD fragment suppresses interferon-induced MHC Class I expression and requires intact (L)LxxL(L) motifs. Human melanoma MEL375 cells were transduced with doxycycline inducible vectors expressing the 3×Flag-nls-tagged DUX4 CTD-154-424 (iDUX4-CTD) (SEQ ID NOS: 8-9) or the similar constructs with a mutation in the first (L)LxxL(L) motif and a deletion of the second (L)LxxL(L) motif (iDUX4-mL1dL2) (SEQ ID NOS: 10-11). Cells were treated with doxycycline (1 μg/ml) for four hours followed by the addition of interferon-gamma treatment for 16 hrs (50 ng/ml).

[2] = system: HLA-A, HLA-B, HLA-C, PSMB8, PSMB9, PSMB10 mRNA nuclear export; assay: Subcellular fractionation of nuclear and cytoplasmic mRNAs and proteins; conditions: DUX4 pulse, IFNG, 44 hours, data not shown
Protocol: MB135iDUX4 myoblasts were pulsed with doxycycline for 4 hours, incubated for 24 hours, supplemented with 50 ng/mL IFNG for 16 hours, and harvested at a terminal time point of 44 hours. Samples divided for whole-cell lysate (WCL) and subcellular fractionation were suspended in 300 μL ice-cold Cyto-lysis buffer (10 mM Tris pH 7.4, 10 mM NaCl, 0.2% NP-40, 1 mM DTT in nuclease free water). Subcellular fractionation samples were centrifuged at 650 RCF to pellet nuclei while cytoplasmic lysate remained in the supernatant. WCL, cytoplasmic, nuclear RNA and protein were harvested for RT-qPCR and immunoblotting, respectively.

[3] = 113 genes induced by IFNG (log 2 fold-change >3)

DUX4: human DUX4 protein SEQ ID NO:3 expressed from doxycycline inducible codon altered transgene SEQ ID NO:2
suppression of IFNG induction of ISGs (IFIH1, ISG20, CXCL9, CD74) [1]: blocks induction of ISGs IFIH1 and ISG20 by IFNG and IFNB1; also recorded: robustly blocked
suppression of IFNG induction of ISGs (IFIH1, ISG20, CXCL9, CD74) ([1]; listed as iDUX4-CA): suppresses IFNG induction of all for ISGs
IFNG-induced genes whose induction was suppressed more than 2-fold (number) (ISG induction by IFNG; [3]): 102 genes
IFNG-induced genes whose induction was suppressed more than 4-fold (number) (ISG induction by IFNG; [3]): 76 genes
IFNG-induced genes whose induction was suppressed more than 2-fold (percent) (ISG induction by IFNG): 90%
IFNG-induced genes whose induction was suppressed more than 4-fold (percent) (ISG induction by IFNG): 67%
transcriptional activation of DUX4 target gene ZSCAN4 (ZSCAN4): strongly induced
transcriptional activation of DUX4 target gene ZSCAN4 (ZSCAN4; listed as iDUX4-CA): robust activator of its target gene ZSCAN4
transcriptional activation of DUX4 target gene ZSCAN4 (ZSCAN4; listed as wild-type DUX4): Only the wild-type DUX4 shows transcriptional activation of its target gene
suppression of MHC class I proteins in MEL375 cells, pulse protocol (MEL375 cells; Mel375iDUX4): prolonged suppression of MHC class I proteins in the MEL375 melanoma cell line
mRNA nuclear export and protein localization to the cytoplasm [2]: did not disrupt

longCTD: 3×FLAG tag and nls in frame with carboxyterminal 271 amino acids of DUX4 (aa154-424), SEQ ID NOS: 8-9
suppression of RNA induction of GBP1, IDO1, CXCL10 by IFNG ([1]; MB135-iDUX4-CTD cells used for STAT1 ChIP): robustly suppressed the RNA induction by IFNG
suppression of IFNG induction of ISGs (IFIH1, ISG20, CXCL9, CD74) [1]: sufficient to block most or all ISG induction by IFNG; also recorded: suppresses three of the four IFNG-induced genes
suppression of IFNG induction of ISGs (IFIH1, ISG20, CXCL9, CD74) ([1]; listed as iDUX4-CTD): equally suppressed activation of ISGs
IFNG-induced genes whose induction was suppressed more than 2-fold (percent) (ISG induction by IFNG): 90%
IFNG-induced genes whose induction was suppressed more than 4-fold (percent) (ISG induction by IFNG): 52%
transcriptional activation of DUX4 target gene ZSCAN4 (ZSCAN4): transcriptionally silent
MHC surface protein expression by FACS (MEL375 cells; MEL375 cells, doxycycline then IFNG): decreased MHC surface protein expression
suppression of IFNG-induced MHC class I proteins in MEL375 cells (MEL375 cells; doxycycline 1 μg/ml 4 h then IFNG 50 ng/ml 16 hrs): suppresses IFNG induction of MHC proteins

From patent US20250339531A1, “DUX4 POLYPEPTIDES AND NUCLEIC ACIDS FOR TREATING INFLAMMATORY AND AUTOIMMUNE CONDITIONS” (Fred Hutchinson Cancer Center, priority 2021, published 2025)
